Laboratory results: patent US20260265244A1, “HETEROCYCLIC COMPOUNDS AS STING ANTAGONISTS” (Boehringer Ingelheim International GmbH, priority 2022, published 2026)

Biological target: T1, cGAMP binding domain of wild-type (GRR) human STING, residues 155-341 (Homo sapiens, UniProt Q86WV6, H232R)
T1 construct: His-TEV-hSTING (WT); TEV protease cleavage site (N); made in house; host or cells: E. coli BL21 DE3
Experiment: Increase of stability of STING protein against thermal denaturation, Differential Scanning Fluorimetry (DSF)
Summary of the method: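 3 µM His-tagged protein with 100 uM compound, 5×SYPRO Orange, 2% DMSO in 20 mM Tris, 150 mM NaCl, pH7.5; 15–95 °C ramp in 0.5 °C steps (15 s/cycle). Tm from Boltzmann fit of the dye melt curve, duplicates averaged, repeated if SD>1.5 °C; ΔTm = Tm with compound minus Tm of protein alone.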

T1 sequence (Q86WV6 with tags, fused parts or gaps H232R): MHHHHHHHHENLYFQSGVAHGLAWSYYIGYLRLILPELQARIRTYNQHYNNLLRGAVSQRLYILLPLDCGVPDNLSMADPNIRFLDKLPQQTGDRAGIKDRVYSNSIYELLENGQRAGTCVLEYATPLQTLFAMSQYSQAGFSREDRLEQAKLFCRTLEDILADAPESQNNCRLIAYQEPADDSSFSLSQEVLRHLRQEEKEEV

Row | Compound | DSF
1 | CC(C)c1nc2nn(C)cc2cc1-c1nc(-c2cccc3nn(CS(=O)(=O)c4ccccc4)cc23)c(C2CC2)n1C [Example 96, 2-[(Benzenesulfonyl)methyl]-4-{5-cyclopropyl-1-methyl-2-[2-methyl-6-(propan-2-yl)-2H-pyrazolo[3,4-b]pyridin-5-yl]-1H-imidazol-4-yl}-2H-indazole] | 29 K
2 | CC(C)c1nc2nn(C)cc2cc1-c1nc(-c2cccc3nn(C[C@H](O)c4ccccc4)cc23)c(C2CC2)n1C [Example 97, (1R)-2-(4-{5-Cyclopropyl-1-methyl-2-[2-methyl-6-(propan-2-yl)-2H-pyrazolo[3,4-b]pyridin-5-yl]-1H-imidazol-4-yl}-2H-indazol-2-yl)-1-phenylethan-1-ol] | 31 K
3 | Cc1nc2nn(CC#N)cc2cc1-n1nc(-c2cccc3nn(C[C@H](O)c4ccccc4)cc23)c(C(C)C)c1C [Example 98, 2-[5-(3-{2-[(2R)-2-hydroxy-2-phenylethyl]-2H-indazol-4-yl}-5-methyl-4-(propan-2-yl)-1H-pyrazol-1-yl)-6-methyl-2H-pyrazolo[3,4-b]pyridin-2-yl]acetonitrile] | 29 K
4 | CCn1cc2cc(-n3nc(-c4cccc5nn(C[C@H](O)c6ccccc6)cc45)c(C(C)C)c3C)c(C)nc2n1 [Example 100, (1R)-2-[4-(1-{2-ethyl-6-methyl-2H-pyrazolo[3,4-b]pyridin-5-yl}-5-methyl-4-(propan-2-yl)-1H-pyrazol-3-yl)-2H-indazol-2-yl]-1-phenylethan-1-ol] | 28 K
5 | Cc1c(C(C)C)c(-c2cccc3nn(C[C@H](O)c4ccc(OCCN(C)C)cc4)cc23)nn1-c1cc2cn(C)nc2nc1C1CC1 [Example 101] | 30 K
6 | Cc1nc2nn(C)cc2cc1-n1nc(-c2cccc3nn(C[C@H](O)c4ccccc4)cc23)c(C(C)C)c1C [Example 102, (1R)-2-[4-(1-{2,6-Dimethyl-2H-pyrazolo[3,4-b]pyridin-5-yl}-5-methyl-4-(propan-2-yl)-1H-pyrazol-3-yl)-2H-indazol-2-yl]-1-phenylethan-1-ol] | 28 K
7 | Cc1nc2nn(CC(F)F)cc2cc1-n1nc(-c2cccc3nn(C[C@H](O)c4ccccc4)cc23)c(C(C)C)c1C [Example 103, (1R)-2-(4-{1-[2-(2,2-difluoroethyl)-6-methyl-2H-pyrazolo[3,4-b]pyridin-5-yl]-5-methyl-4-(propan-2-yl)-1H-pyrazol-3-yl}-2H-indazol-2-yl)-1-phenylethan-1-ol] | 29 K
8 | Cn1c(-c2cc3cn(CCC#N)nc3nc2C2CC2)nc(-c2cccc3nn(C[C@H](O)c4ccccc4)cc23)c1C1CC1 [Example 104, 3-[6-cyclopropyl-5-(5-cyclopropyl-4-{2-[(2R)-2-hydroxy-2-phenylethyl]-2H-indazol-4-yl}-1-methyl-1H-imidazol-2-yl)-2H-pyrazolo[3,4-b]pyridin-2-yl]propanenitrile] | 31 K
9 | Cc1nc2cc(C)c(-n3nc(-c4cccc5nn(C[C@H](O)c6ccccc6)cc45)c(C(C)C)c3C)cc2[nH]1 [Example 105, (1R)-2-{4-[1-(2,5-dimethyl-1H-1,3-benzodiazol-6-yl)-5-methyl-4-(propan-2-yl)-1H-pyrazol-3-yl]-2H-indazol-2-yl}-1-phenylethan-1-ol] | 24 K
10 | Cc1c(C(C)C)c(-c2cccc3nn(C[C@H](O)c4ccccc4)cc23)nn1-c1cc2cn(C)nc2nc1CO [Example 106, (1R)-2-(4-{1-[6-(hydroxymethyl)-2-methyl-2H-pyrazolo[3,4-b]pyridin-5-yl]-5-methyl-4-(propan-2-yl)-1H-pyrazol-3-yl}-2H-indazol-2-yl)-1-phenylethan-1-ol] | 28 K
11 | CCc1nc2nn(C)cc2cc1-c1nc(-c2cccc3nn(C[C@H](F)c4ccccc4)cc23)c(C2CC2)n1C [Example 107, 4-(5-cyclopropyl-2-{6-ethyl-2-methyl-2H-pyrazolo[3,4-b]pyridin-5-yl}-1-methyl-1H-imidazol-4-yl)-2-[(2R)-2-fluoro-2-phenylethyl]-2H-indazole] | 31 K
12 | Cc1nc2nn(C)cc2cc1-n1nc(-c2cccc3nn(C[C@H](OCC(N)=O)c4ccccc4)cc23)c(C(C)C)c1C [Example 108, 2-[(1R) -2-[4-(1-{2,6-dimethyl-2H-pyrazolo[3,4-b]pyridin-5-yl}-5-methyl-4-(propan-2-yl)-1H-pyrazol-3-yl)-2H-indazol-2-yl]-1-phenylethoxy]acetamide] | 27 K
13 | CC(C)c1c(-c2cccc3nn(C[C@H](O)c4ccccc4)cc23)nc(-c2cc3cn(C)nc3cc2OC(F)(F)F)n1C [Example 109, (1R)-2-(4-{1-methyl-2-[2-methyl-6-(trifluoromethoxy)-2H-indazol-5-yl]-5-(propan-2-yl)-1H-imidazol-4-yl}-2H-indazol-2-yl)-1-phenylethan-1-ol] | 27 K
14 | Cn1cc2cc(-c3nc(-c4cccc5nn(C[C@H](O)c6ccccc6)cc45)c(C4CC4)n3C)c(C3CC3(F)F)nc2n1 (stereo partly drawn) [Example 110, (1R)-2-(4-{5-cyclopropyl-2-[6-(2,2-difluorocyclopropyl)-2-methyl-2H-pyrazolo[3,4-b]pyridin-5-yl]-1-methyl-1H-imidazol-4-yl}-2H-indazol-2-yl)-1-phenylethan-1-ol] | 29 K
15 | Cc1c(C(C)C)c(-c2cccc3nn(C[C@H](O)c4ccccc4)cc23)nn1-c1cc2cn(C)nc2nc1C1CCCN1 (stereo partly drawn) [Example 111, (1R)-2-(4-{5-Methyl-1-[2-methyl-6-(pyrrolidin-2-yl)-2H-pyrazolo[3,4-b]pyridin-5-yl]-4-(propan-2-yl)-1H-pyrazol-3-yl}-2H-indazol-2-yl)-1-phenylethan-1-ol] | 24 K
16 | Cc1c(C(C)C)c(-c2cccc3nn(C[C@H](O)c4ccccc4)cc23)nn1-c1cc2cn(C)nc2nc1CN(C)C [Example 112] | 23 K
17 | Cc1c(C(C)C)c(-c2cccc3nn(C[C@H](O)c4ccccc4)cc23)nn1-c1cc2cn(C)nc2nc1C(C)(C)C [Example 113, (1R)-2-[4-(1-{6-tert-butyl-2-methyl-2H-pyrazolo[3,4-b]pyridin-5-yl}-5-methyl-4-(propan-2-yl)-1 H-pyrazol-3-yl)-2H-indazol-2-yl]-1-phenylethan-1-ol] | 23 K
